Where two headings read alike, the source gives them in different places.
What was measured:
CYP11B1 = molecular target: T1, CYP11B1 (Homo sapiens, UniProt P15538); test: SAD study: plasma cortisol, 11-deoxycortisol and 11-DOC after Cortrosyn challenge; format: in vivo
T1 construct: endogenous in cells; host or cells: adrenal cortex of healthy human subjects (in vivo, oral dosing)
T1 sequence (P15538 25-503): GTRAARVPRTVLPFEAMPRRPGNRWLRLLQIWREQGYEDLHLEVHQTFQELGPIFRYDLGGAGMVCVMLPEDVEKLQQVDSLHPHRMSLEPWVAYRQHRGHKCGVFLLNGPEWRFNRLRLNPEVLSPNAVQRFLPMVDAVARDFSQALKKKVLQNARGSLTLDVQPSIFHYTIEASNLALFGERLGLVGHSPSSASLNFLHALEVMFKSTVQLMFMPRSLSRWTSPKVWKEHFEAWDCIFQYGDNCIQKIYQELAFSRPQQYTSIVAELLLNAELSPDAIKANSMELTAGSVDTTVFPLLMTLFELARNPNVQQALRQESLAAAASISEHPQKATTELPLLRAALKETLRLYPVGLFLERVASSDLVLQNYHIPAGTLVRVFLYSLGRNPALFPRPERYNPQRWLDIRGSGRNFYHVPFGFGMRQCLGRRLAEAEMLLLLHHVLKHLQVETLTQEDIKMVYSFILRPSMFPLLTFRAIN
Procedure: Single doses of (R)-compound 1 reduced plasma and urine aldosterone levels by approximately 85% to 90% in a dose-dependent manner, consistently reaching a maximum effect at a dose of 10 mg (R)-compound 1 under the different conditions tested (Cortrosyn® challenge, standing, normal salt diet, and low salt diet conditions). No change in plasma cortisol levels was apparent across the full dose range tested (0 to 360 mg (R)-compound 1).
A maximum effect on aldosterone reduction was consistently achieved at a dose of 10 mg under the different conditions tested in healthy subjects (Cortrosyn® challenge, standing, normal salt diet, and low salt diet conditions). No change in plasma cortisol levels after the Cortrosyn challenge was apparent across the full dose range tested (0 to 360 mg of (R)-compound 1).

[1] = Multiple-ascending dose (MAD) study, once daily for 10 days in healthy subjects: plasma pharmacokinetics; format: in vivo, human; settings: for AUC extrap / CLss/F / RAUC (accumulation ratio AUC0-tau/AUC0-24h) / RCmax (accumulation ratio Cmax, D10/Cmax, D1) / AUC(0-t) / Cmax / AUC(0-inf) / AUC / Vd/F / half-life: mean (CV %); for AUC(0-t): read-out: AUC0-24 h; for AUC: read-out: AUC0-tau; for Vd/F: read-out: Vss/F; for half-life: read-out: t½ (converted)
Procedure: This was a randomized, double-blind study to assess the safety, tolerability, PK, and PD of multiple oral doses of (R)-compound 1 when administered to healthy adult subjects. The study consisted of 5 cohorts, with up to 12 subjects per cohort. Subjects were randomized in a 3:1 ratio to (R)-compound 1 or placebo once daily for 10 days as follows: • Cohort 1: 2.5 mg (R)-compound 1 or matching placebo (low salt diet in 9 subjects receiving (R)-compound 1 and 3 subjects receiving placebo); • Cohort 2: 5.0 mg (R)-compound 1 or matching placebo (low salt diet in 9 subjects receiving (R)-compound 1 and 3 subjects receiving placebo); • Cohort 3: 1.5 mg (R)-compound 1 or matching placebo (normal salt diet in 9 subjects receiving (R)-compound 1 and 3 subjects receiving placebo); • Cohort 4: 2.5 mg (R)-compound 1 or matching placebo (normal salt diet in 6 subjects receiving (R)-compound 1 and 2 subjects receiving placebo); and • Cohort 5: 0.5 mg (R)-compound 1 or matching placebo (normal salt diet in 9 subjects receiving (R)-compound 1 and 3 subjects receiving placebo).
For each subject, the study consisted of: • A screening period of up to 28 days; • A 5-day inpatient run-in period during which subjects adhered to a controlled, standardized diet and underwent baseline PD assessments; • A 15-day inpatient treatment period, during which subjects received (R)-compound 1 or placebo once daily for 10 days while adhering to a controlled, standardized diet, followed by PK and PD sampling over an additional 5 days; and • A follow-up visit 3 days (1 day) after discharge from the clinical unit. • A cortisol stimulation test (Cohorts 1 and 2 only) and standing aldosterone assessment (all cohorts) were performed on Days 1 and 10. Serial blood samples for PK and PD were obtained prior to and at specified time points over 24 hours after dosing on Day 1 as well as prior to and at specified time points over 120 hours after dosing on Day 10. In addition, blood samples for PK were collected prior to dosing on Days 8 and 9. Urine for PK and PD measurements was collected over 24 hours starting just prior to dosing on Day 1 as well as over 120 hours starting just prior to dosing on Day 10.
Study subjects were dosed with (R)-compound 1 (oral drinking solution) or matching placebo. The doses of (R)-compound 1 administered were 2.5 and 5.0 mg with a low salt diet and 1.5, 2.5, and 0.5 mg with a normal salt diet.
(only for (R)-compound 1).

[2] = 0.5 mg QD, normal salt diet, Day 10
[3] = 1.5 mg QD, normal salt diet, Day 10
[4] = 2.5 mg QD, low salt diet, Day 10
[5] = 2.5 mg QD, normal salt diet, Day 10
[6] = 5.0 mg QD, low salt diet, Day 10
[7] = human, plasma, oral, 0.5 mg, 0.5 mg QD, normal salt diet, Day 10
[8] = human, plasma, oral, 1.5 mg, 1.5 mg QD, normal salt diet, Day 10
[9] = human, plasma, oral, 2.5 mg, 2.5 mg QD, low salt diet, Day 10
[10] = human, plasma, oral, 2.5 mg, 2.5 mg QD, normal salt diet, Day 10
[11] = human, plasma, oral, 5 mg, 5.0 mg QD, low salt diet, Day 10

CCC(=O)N[C@@H]1CCCc2c(-c3ccc4c(c3)CCC(=O)N4C)cncc21 [(R)-Compound 1, (R)—N-(4-(1-methyl-2-oxo-1,2,3,4-tetrahydroquinolin-6-yl)-5,6,7,8-tetrahydroisoquinolin-8-yl)propionamide]
plasma cortisol levels (CYP11B1; full dose range tested (0 to 360 mg), Cortrosyn challenge): No change | doses at which 11-DOC increased (CYP11B1; single doses): ≥ 90 mg | 11-deoxycortisol (CYP11B1; single doses up to 360 mg): increases in 11-deoxycortisol (at doses of 180 mg and 360 mg) | AUC extrap [1, 2]: 6.325 (42.2) % | CLss/F [1, 2]: 3.421 (29.4) L/h | RAUC (accumulation ratio AUC0-tau/AUC0-24h) ([1]; 0.5 mg QD, normal salt diet): 1.960 (13.9) | RCmax (accumulation ratio Cmax, D10/Cmax, D1) ([1]; 0.5 mg QD, normal salt diet): 1.827 (14.2) | AUC extrap [1, 3]: 6.106 (65.9) % | CLss/F [1, 3]: 3.350 (27.5) L/h | RAUC (accumulation ratio AUC0-tau/AUC0-24h) ([1]; 1.5 mg QD, normal salt diet): 2.307 (13.8) | RCmax (accumulation ratio Cmax, D10/Cmax, D1) ([1]; 1.5 mg QD, normal salt diet): 2.132 (11.2) | AUC extrap [1, 4]: 4.519 (45.4) % | CLss/F [1, 4]: 3.277 (16.1) L/h | RAUC (accumulation ratio AUC0-tau/AUC0-24h) ([1]; 2.5 mg QD, low salt diet): 2.147 (7.4) | RCmax (accumulation ratio Cmax, D10/Cmax, D1) ([1]; 2.5 mg QD, low salt diet): 1.965 (15.1) | AUC extrap [1, 5]: 3.832 (85.6) % | CLss/F [1, 5]: 4.315 (36.9) L/h | RAUC (accumulation ratio AUC0-tau/AUC0-24h) ([1]; 2.5 mg QD, normal salt diet): 1.994 (22.3) | RCmax (accumulation ratio Cmax, D10/Cmax, D1) ([1]; 2.5 mg QD, normal salt diet): 1.706 (34.1) | AUC extrap [1, 6]: 5.397 (52.6) % | CLss/F [1, 6]: 3.207 (26.3) L/h | RAUC (accumulation ratio AUC0-tau/AUC0-24h) ([1]; 5.0 mg QD, low salt diet): 2.507 (10.2) | RCmax (accumulation ratio Cmax, D10/Cmax, D1) ([1]; 5.0 mg QD, low salt diet): 2.424 (13.6) | AUC(0-t) ([1]; human, plasma, oral, 0.5 mg, 0.5 mg QD, normal salt diet, Day 1): 79.5 ng·h/mL | Cmax ([1]; human, plasma, oral, 0.5 mg, 0.5 mg QD, normal salt diet, Day 1, read-out: Cmax, D 1): 5.36 ng/mL | Tmax ([1]; human, plasma, oral, 0.5 mg, 0.5 mg QD, normal salt diet, Day 1, median (min, max), read-out: Tmax, D 1): 2 h | AUC(0-inf) [1, 7]: 351 ng·h/mL | AUC [1, 7]: 155 ng·h/mL | Cmax ([1]; human, plasma, oral, 0.5 mg, 0.5 mg QD, normal salt diet, Day 10, read-out: Cmax, D 10): 9.72 ng/mL | Vd/F [1, 7]: 152 L | Tmax ([1]; human, plasma, oral, 0.5 mg, 0.5 mg QD, normal salt diet, Day 10, median (min, max), read-out: Tmax, D 10): 2 h | AUC(0-t) ([1]; human, plasma, oral, 1.5 mg, 1.5 mg QD, normal salt diet, Day 1): 205 ng·h/mL | Tmax ([1]; human, plasma, oral, 1.5 mg, 1.5 mg QD, normal salt diet, Day 1, median (min, max), read-out: Tmax, D 1): 2.5 h | AUC(0-inf) [1, 8]: 1110 ng·h/mL | AUC [1, 8]: 480 ng·h/mL | Vd/F [1, 8]: 137 L | Tmax ([1]; human, plasma, oral, 1.5 mg, 1.5 mg QD, normal salt diet, Day 10, median (min, max), read-out: Tmax, D 10): 2.5 h | AUC(0-t) ([1]; human, plasma, oral, 2.5 mg, 2.5 mg QD, low salt diet, Day 1): 366 ng·h/mL | Tmax ([1]; human, plasma, oral, 2.5 mg, 2.5 mg QD, low salt diet, Day 1, median (min, max), read-out: Tmax, D 1): 3 h | AUC(0-inf) [1, 9]: 1490 ng·h/mL | AUC [1, 9]: 783 ng·h/mL | Cmax ([1]; human, plasma, oral, 2.5 mg, 2.5 mg QD, low salt diet, Day 10, read-out: Cmax, D 10): 54 ng/mL | Vd/F [1, 9]: 135 L | Tmax ([1]; human, plasma, oral, 2.5 mg, 2.5 mg QD, low salt diet, Day 10, median (min, max), read-out: Tmax, D 10): 2 h | AUC(0-t) ([1]; human, plasma, oral, 2.5 mg, 2.5 mg QD, normal salt diet, Day 1): 344 ng·h/mL | Tmax ([1]; human, plasma, oral, 2.5 mg, 2.5 mg QD, normal salt diet, Day 1, median (min, max), read-out: Tmax, D 1): 3 h | AUC(0-inf) [1, 10]: 1460 ng·h/mL | AUC [1, 10]: 677 ng·h/mL | Vd/F [1, 10]: 150 L | Tmax ([1]; human, plasma, oral, 2.5 mg, 2.5 mg QD, normal salt diet, Day 10, median (min, max), read-out: Tmax, D 10): 3 h | AUC(0-t) ([1]; human, plasma, oral, 5 mg, 5.0 mg QD, low salt diet, Day 1): 658 ng·h/mL | AUC(0-inf) [1, 11]: 3480 ng·h/mL | AUC [1, 11]: 1660 ng·h/mL | Vd/F [1, 11]: 134 L | Tmax ([1]; human, plasma, oral, 5 mg, 5.0 mg QD, low salt diet, Day 10, median (min, max), read-out: Tmax, D 10): 3 h | Tmax ([1]; human, plasma, oral, 0.5 to 5 mg QD, read-out: median Tmax, range across treatment groups): 0.98 to 4 h | half-life ([1]; human, plasma, oral, 1.5 mg QD, normal salt diet, Day 10): 29.9 h | half-life ([1]; human, plasma, oral, 2.5 mg QD, normal salt diet, Day 10): 25.5 h | half-life ([1]; human, plasma, oral, 5.0 mg QD, low salt diet, Day 10): 29.4 h | half-life at 10 days ([1]; human, plasma, oral, approximately, read-out: mean t½, range): 26 to 31 h | time after dosing within which peak concentrations typically observed ([1]; oral administration): ≤ 4 h

From patent US20240277698A1, “METHODS OF USING ALDOSTERONE SYNTHASE INHIBITORS” (CINCOR PHARMA, INC., priority 2021, published 2024)
